Laboratory results published in patent US10004718B2, “Erythropoietin expression promoter” (TOHOKU UNIVERSITY, priority 2012, dated 2018).

Assays:
[1] = system: mRNA expression of the erythropoietin gene; assay: Quantitative PCR of erythropoietin mRNA in Hep3B cells; type: cell-based, human; conditions: compound 10 μM, 20% O2, GAPDH internal standard
Procedure: Of the 5 types of compounds confirmed in Example 4 to be effective for promoting the transcriptional activity of the erythropoietin gene promoter, 4 types of compounds (compounds #2, 4, 5, and 21) were selected. From Hep3B cells cultured in RPMI1640 common medium 1 supplemented with each of these 4 types of compounds at a concentration of 10 μM, total RNA was extracted using TriPure Isolation Reagent (manufactured by F. Hoffmann La Roche AG) in a 6-well cell culture plate. Hep3B cells cultured in the absence of the compound (DMSO added) (“20% O2/DMSO” of FIG. 4) were used as a negative control. Hep3B cells cultured in the presence of a GATA-specific inhibitor (K7174 [10 μM]) (“20% O2/K7174” of FIG. 4) and Hep3B cells cultured under hypoxia (1% O2) conditions and in the absence of the compound (DMSO added [1%]) (“1% O2/DMSO” of FIG. 4) were used as positive controls.
The extracted RNA was used as a template to synthesize cDNA using SuperScript III RTS First-strand kit (manufactured by Invitrogen Corp.). Then, the expression of the erythropoietin mRNA was measured by quantitative PCR with GAPDH as an internal standard. The quantitative PCR was carried out using TaqMan® Gene Expression Assays (using GAPDH; Assay ID: Rn99999916_s1, and human erythropoietin; Assay ID: Hs00171267_ml TaqMan® probes [manufactured by Applied Biosystems Inc.]) and Step One Plus Real-Time PCR System (manufactured by Applied Biosystems Inc.).

[2] = system: erythropoietin; assay: Erythropoietin production in vivo in mice, oral administration for 7 days; parameters: species or system mouse; conditions: 7 consecutive days, plasma 24 hours after final administration, vs corn oil, DMSO+corn oil or no administration
Procedure: A mixed solution (200 μl) of each of 4 types of compounds (compounds #4, 5, 21, and 35) (10 mg/100 μl of DMSO) (10 μl) and corn oil (190 μl) was prepared. This mixed solution (200 μl) was orally administered to each mouse (C57BL/6N 8 W, male, 21-25 g) between 15:00 to 18:00 every day using a sonde. This administration was carried out for 7 consecutive days. Mice orally given corn oil or DMSO and corn oil as well as non-administered mice were used as controls.
24 hours after the final administration, each mouse was cervically dislocated, and 500 μl of blood was collected from the heart. Then, an anticoagulant (10 μl of heparin) was added thereto, and the resulting blood was centrifuged (12000 rpm×20 min, 4° C.) to isolate plasma. The plasma concentration […] of erythropoietin was measured using a kit (Quantikine Mouse/Rat Epo Immunoassay, manufactured by R&D Systems, Inc.).

[3] = system: Hep3B cells; assay: Cytotoxicity, cell survival rate of Hep3B cells (Cell Counting Kit-8); type: cell-based, human
Procedure: The Hep3B cells were seeded at 1×10^4 cells/well to a 24-well cell culture plate and then cultured under normal oxygen (20% O2) for 24 hours. […] After further culture under normal oxygen (20% O2) for 24 hours, the number of live cells was measured using Cell Counting Kit-8 (manufactured by Dojindo Laboratories) to calculate the survival rate of the cells. Hep3B cells cultured in the absence of the compound (DMSO added [1%]) (“DMSO” of FIG. 9) and Hep3B cells cultured in the presence of HIF activators (DMOG [10 μM] and ciclopirox[10 μM]) (“DMOG” and “Ciclopirox”, respectively, of FIG. 9) were used as controls.

[4] = Erythrocyte production in mice (Hct value and hemoglobin, i-STAT); type: in vivo, mouse; conditions: 1 mg/200 μl of CMC oral, 7 consecutive days, n=3, mean±standard deviation
Procedure: Compound #4 (1 mg) was mixed with 200 μl of CMC (carboxymethylcellulose). This compound #4 mixed solution (1 mg/200 μl of CMC) was orally administered to each mouse (C57BL/6N 8 W, male, 21-25 g) between 15:00 to 18:00 every day using a sonde. This administration was carried out for 7 consecutive days (n=3). Mice orally given CMC were used as controls (n=3).
24 hours after the final administration, each mouse was cervically dislocated, and 500 μl of blood was collected from the heart. Then, an anticoagulant (10 μl of heparin) was added thereto, and the Hct value and the hemoglobin concentration were measured using i-STAT (manufactured by Fuso Pharmaceutical Industries, Ltd.).

[5] = system: human kidney-derived cell line HK-2; assay: Renal protective effect: cisplatin cytotoxicity to HK-2 cells; type: cell-based; conditions: for HK-2 cell death by cisplatin: cisplatin 30 μM
Procedure: The HK-2 cells were seeded at 5×10^3 cells/well to a 96-well cell culture plate and then cultured overnight. Cisplatin and compound #4 were mixed at 30 μM and each concentration (30, 10, 3, 1, 0.3, 0.1, 0.03, 0.01, and 0.003 μM), respectively, into DMEM/F12 common medium. After further culture for 24 hours, conversion to formazan dye by mitochondrial dehydrogenase in live cells was detected by the measurement of absorbance at OD […] using a kit (Cell counting kit-8, manufactured by Dojindo Laboratories) to analyze the ratio of live cells. HK-2 cells cultured in the absence of cisplatin (“Cisplatin-” of FIG. 14) and HK-2 cells cultured in the presence of cisplatin (30 μM) and in the absence of the compound #4 (“Cisplatin+” of FIG. 14) were used as controls.
The cells were cultured in advance for 1 hour with the compound #4 of the present invention having a concentration of 3 μM and then analyzed according to the method described in Example 12.

[6] = system: HIF-α; assay: HIF-α concentration in Hep3B cells (Total HIF-1α Cell-Based ELISA); parameters: species or system human; conditions: compound 10 μM, 20% O2, 24 hours
Procedure: The Hep3B cells were seeded at 1×10^4 cells/well to a 24-well cell culture plate and then cultured under normal oxygen (20% O2) for 24 hours. Each of 3 types of compounds (compounds #4, 21, and 35) was mixed at a concentration of 10 μM into RPMI1640 common medium 1. After further culture under normal oxygen (20% O2) for 24 hours, the concentration of HIF-α produced in the medium was measured using Total HIF-1 α Cell-Based ELISA Kit (manufactured by R&D Systems, Inc.). Hep3B cells cultured in the absence of the compound (DMSO added [1%]) (“Control” of FIG. 5) were used as a negative control. Hep3B cells cultured in the presence of HIF activators (FG-4592 [10 μM], DMOG [10 μM], and ciclopirox[10 μM]) (“FG”, “DMOG”, and “Ciclo”, respectively, of FIG. 5) were used as positive controls.

Row | SMILES | mRNA expression level of the erythropoietin gene [1] | amount of erythropoietin in the mouse blood [2] | cell survival rate compared with cells cultured in the absence of the compound (DMSO) ([3]; 0.5 μM compound, 24 hours) | cell survival rate compared with cells cultured using 0.5 μM compound ([3]; 100 μM compound, 24 hours) | cell survival rate compared with cells cultured using 0.5 μM compound ([3]; 1, 5, or 10 μM compound, 24 hours) | cytotoxicity ([3]; concentration ranging from 0 to 10 μM) | Hct value [4] [% PCV] | hemoglobin concentration in the mouse blood [4] [g/dL] | HK-2 cell death by cisplatin ([5]; compound at a concentration around 30 μM) | HK-2 cell death by cisplatin ([5]; compound at least at a concentration of 1 to 300 μM, 24 hours) | HK-2 cell death by cisplatin with preincubation compared with no preincubation ([5]; preincubation 1 hour with 3 μM compound) | HIF-α concentration in the Hep3B cells [6]
1 | O=C(CC(C(=O)O)c1c[nH]c2ccccc12)c1ccc(F)cc1 (centres unmarked) [compound #4, 4-(4-Fluorophenyl)-2-(1H-indol-3-yl)-4-oxo-butanoic acid] | increase the mRNA expression level | increased | almost the same | approximately 70% | rarely different | hardly exhibit cytotoxicity | 47.7±0.816 | 16.2 ± 0.286 | efficiently suppress cell death | significantly suppressed | further suppressed | increase the HIF-α concentration
2 | O=C(O)C(CCCC(F)(F)C(F)(F)F)c1c[nH]c2ccccc12 (stereo not drawn) [compound #21, α-(4,4,5,5,5-Pentafluoro-1-pentyl)-3-indoleacetic acid] | increase the mRNA expression level | increased |  |  |  |  |  |  |  |  |  | increase the HIF-α concentration
3 | O=C(CC(C(=O)O)c1c[nH]c2ccccc12)c1ccc(F)cc1F (centres unmarked) [compound #5, 4-(2,4-Difluorophenyl)-2-(1H-indol-3-yl)-4-oxo-butanoic acid] | increase the mRNA expression level | increased |  |  |  |  |  |  |  |  |  | 
